Test results reported in patent publication US10221177B2 (HYDRA BIOSCIENCES, INC., priority 2014, dated 2019).
Values joined by “and” are separate entries in the source; they are usually repeats but may differ in a detail not shown here. Equal values may be shown once.

Legend:
[1] = molecular target: human TRPA1 (Homo sapiens (Human), UniProt O75762); test: In vitro inhibition of human TRPA1, whole cell patch configuration; format: cell-based; conditions: current activation 10 μM AITC, tested concentrations 320 pM to 3.2 μM, read-out: hTRPA1 IC50
Procedure, shortened: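 Compound antagonism measured from voltage ramps (±100 or ±80 mV, 400 ms, every 4 s from −40 mV), analysed at −80 and 80 mV, or at constant −60 mV. HEPES-buffered NaCl bath, pH 7.4, EGTA or 2 mM Ca2+; temperature set by perfusion, within ±2° C; no junction-potential correction.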

[2] = test system: CFA-induced cold hypersensitivity of the hind paw; test: CFA-induced pain test, cold hypersensitivity (cold plate paw withdrawal latency); format: in vivo; conditions: cold plate 1° C., solution in 4% DMSO, 5% Tween-80; for Average PWL Post-Treatment / PWL Change: 1-2 hour pre-treatment; for Average PWL Post-CFA: baseline before dosing
Protocol: Embodiments of the invention may be efficacious in the treatment of inflammatory pain. Compounds of the invention were tested by the CFA-induced pain test method. Compounds were formulated as solutions in water with various solvents and excipients including dimethyl sulfoxide (DMSO), polyethylene glycol (15)-hydroxystearate (Solutol®, Sigma-Aldrich), caprylocaproyl macrogol-8 glyceride (Labrasol®, Sigma-Aldrich), polysorbate-80 (Tween®-80, Sigma-Aldrich), and polyoxyl 35 castor oil (Cremophor® EL, BASF Corp.); or suspensions in methylcellulose as indicated in Table 3 for oral delivery. Briefly, the hind paw was sensitized to cold temperature (allodynic) by administering 0.1 mL of Complete Freund's Adjuvant (CFA) to the right hind paw. Three days later, the time taken for the animal to lift its CFA-injected paw was recorded compared to its un-injected normal left hind paw. […] To avoid tissue damage the maximum cut-off time was 5 minutes. Animals that were allodynic (average PWL to the first three pain behaviors <150 seconds for the CFA-injected hind paw: ˜≥50% difference between the normal and CFA-injected paw) were included in the study and subsequently randomized across treatment groups. The following day, the animals were dosed orally under blinded conditions. Following the 1-2 hour pre-treatment time, the post-dose PWL readings were again taken. The efficacy of the drug treatment was assessed by comparing the PWL in the drug treatment animals to those animals that receive the vehicle. P values, when indicated, indicate significance compared Vehicle.

[3] = test system: formalin-induced pain behaviors in the rat; test: Formalin-induced pain test (formalin model), duration of pain behaviors; format: in vivo
Protocol: Exemplary compounds of the invention were tested in the formalin-induced pain test reported by Dubuisson et al., Pain 1977 December; 4(2):161-74 (incorporated herein by reference in its entirety). Briefly, dilute formalin (50 μL of 3% formalin) was injected into the plantar surface of the hind paw of a rat. […] The individual responsible for counting the pain behaviors in a particular study was blinded to the treatment groups.
The initial phase (Phase I: 0-5 min) is thought to have a significant component that is dependent upon direct activation of afferent fibers by formalin and functional TRPA1 (McNamara et al., 2007).
Investigators studied oral administration of compounds of the invention at the doses presented in Table 3 on pain behaviors in the formalin model in the rat. Compounds were formulated as solutions in water with various solvents and excipients including dimethyl sulfoxide (DMSO), polyethylene glycol (15)-hydroxystearate (Solutol®, Sigma-Aldrich), caprylocaproyl macrogol-8 glyceride (Labrasol®, Sigma-Aldrich), polysorbate-80 (Tween®-80, Sigma-Aldrich), and polyoxyl 35 castor oil (Cremophor® EL, BASF Corp.); or suspensions in methylcellulose as indicated in Table 3. Animals were dosed orally with the vehicle, or compounds of the invention one hour prior to intraplantar formalin. […] A decrease over Vehicle indicates a positive result. P values, when indicated, indicate significance compared Vehicle.

[4] = 0.3 mg/kg PO, 20% Cremophor EL, and 71% water
[5] = 1 mg/kg PO, 20% Cremophor EL, and 71% water
[6] = 3 mg/kg PO, 20% Cremophor EL, and 71% water
[7] = group 0.3 mg/kg PO, 20% Cremophor EL, and 71% water
[8] = group 1 mg/kg PO, 20% Cremophor EL, and 71% water
[9] = group 3 mg/kg PO, 20% Cremophor EL, and 71% water
[10] = 1 mg/kg PO one hour prior to formalin, solution in 4% DMSO, 5% Tween-80, 20% Cremophor EL, 71% water
[11] = 3 mg/kg PO one hour prior to formalin, solution in 4% DMSO, 5% Tween-80, 20% Cremophor EL, 71% water
[12] = 10 mg/kg PO one hour prior to formalin, solution in 4% DMSO, 5% Tween-80, 20% Cremophor EL, 71% water
[13] = 1 mg/kg PO, 25% Cremophor EL, and 66% water
[14] = 3 mg/kg PO, 25% Cremophor EL, and 66% water
[15] = 10 mg/kg PO, 25% Cremophor EL, and 66% water
[16] = 30 mg/kg PO one hour prior to formalin, solution in 8% DMSO and 92% Labrasol
[17] = 10 mg/kg PO, 20% Cremophor EL, and 71% water
[18] = 30 mg/kg PO one hour prior to formalin, solution in 4% DMSO, 5% Tween-80, 20% Cremophor EL, 71% water

Chain of human TRPA1 (O75762 whole entry, the tested form may be a part): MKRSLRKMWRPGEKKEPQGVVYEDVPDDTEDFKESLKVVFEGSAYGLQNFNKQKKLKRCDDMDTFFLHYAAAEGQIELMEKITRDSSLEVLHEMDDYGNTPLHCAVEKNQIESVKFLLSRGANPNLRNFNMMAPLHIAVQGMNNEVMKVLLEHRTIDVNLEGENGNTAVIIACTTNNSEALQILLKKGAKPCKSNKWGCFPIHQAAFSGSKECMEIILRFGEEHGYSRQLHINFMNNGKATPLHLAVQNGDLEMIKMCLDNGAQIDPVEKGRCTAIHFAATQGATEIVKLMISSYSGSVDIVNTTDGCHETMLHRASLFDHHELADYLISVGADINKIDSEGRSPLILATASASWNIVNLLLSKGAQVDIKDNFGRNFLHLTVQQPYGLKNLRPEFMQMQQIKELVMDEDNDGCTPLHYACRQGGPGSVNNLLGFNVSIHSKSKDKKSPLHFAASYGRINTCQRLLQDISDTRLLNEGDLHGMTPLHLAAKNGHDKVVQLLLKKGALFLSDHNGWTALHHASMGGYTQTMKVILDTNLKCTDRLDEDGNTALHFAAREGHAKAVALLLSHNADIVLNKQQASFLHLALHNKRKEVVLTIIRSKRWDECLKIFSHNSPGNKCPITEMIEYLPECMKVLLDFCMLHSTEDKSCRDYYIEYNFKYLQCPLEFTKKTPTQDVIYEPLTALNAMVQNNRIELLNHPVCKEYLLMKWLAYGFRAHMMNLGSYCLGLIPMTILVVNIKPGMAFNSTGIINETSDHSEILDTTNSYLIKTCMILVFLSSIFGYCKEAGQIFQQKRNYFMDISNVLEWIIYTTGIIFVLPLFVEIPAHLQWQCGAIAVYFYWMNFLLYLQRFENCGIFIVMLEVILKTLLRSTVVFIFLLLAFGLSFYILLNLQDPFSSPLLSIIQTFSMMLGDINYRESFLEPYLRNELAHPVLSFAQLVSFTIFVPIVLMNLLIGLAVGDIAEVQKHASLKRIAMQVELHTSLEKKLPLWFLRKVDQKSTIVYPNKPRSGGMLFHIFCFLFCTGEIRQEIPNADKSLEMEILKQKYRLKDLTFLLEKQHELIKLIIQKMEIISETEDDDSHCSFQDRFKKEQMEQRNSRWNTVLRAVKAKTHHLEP

Row | SMILES | IC50 [1] [nM] | Average PWL Post-Treatment [2, 5] | PWL Change [2, 5] [s] | Average PWL Post-Treatment [2, 6] | PWL Change [2, 6] [s] | Average PWL Post-CFA [2, 8] | Average PWL Post-CFA [2, 9] | Duration (0-2 Minutes) Average [3, 10] [s] | Duration (0-5 Minutes) Average [3, 10] [s] | Duration (0-2 Minutes) Average [3, 11] [s] | Duration (0-5 Minutes) Average [3, 11] [s] | Duration (0-2 Minutes) Average [3, 12] [s] | Duration (0-5 Minutes) Average [3, 12] [s] | further results
1 | CCC(=O)Cn1c(=O)c2c(ncn2[C@@H](C)C(=O)Nc2csc(-c3cnc(N4CC5CC5C4)nc3)n2)n(C)c1=O (stereo partly drawn) [Compound 14] |  |  |  |  |  |  |  |  |  |  |  |  |  | Average PWL Post-Treatment [2, 13]: 194.8; PWL Change [2, 13]: 104.2 s; Average PWL Post-Treatment [2, 14]: 180.0; PWL Change [2, 14]: 87.6 s; Average PWL Post-Treatment [2, 15]: 237.4; PWL Change [2, 15]: 146.3 s; Average PWL Post-CFA ([2]; group 1 mg/kg PO, 25% Cremophor EL, and 66% water): 90.3; Average PWL Post-CFA ([2]; group 3 mg/kg PO, 25% Cremophor EL, and 66% water): 92.3; Average PWL Post-CFA ([2]; group 10 mg/kg PO, 25% Cremophor EL, and 66% water): 90.9; Duration (0-2 Minutes) Average [3, 16]: 34.3 s and 39.6 s; Duration (0-5 Minutes) Average [3, 16]: 123.4 s and 160.6 s
2 | CCC(=O)Cn1c(=O)c2c(ncn2[C@@H](C)C(=O)Nc2csc(-c3cnc(N4CCC[C@H]4C(F)(F)F)nc3)n2)n(C)c1=O [Compound 18, (S)-2-(3-methyl-2,6-dioxo-1-(2-oxobutyl)-2,3-dihydro-1H-purin-7(6H)-yl)-N-(2-(2-((S)-2-(trifluoromethyl)pyrrolidin-1-yl)pyrimidin-5-yl)thiazol-4-yl)propanamide] |  | 246.8 | 149.7 | 233.5 | 136.4 | 97.1 | 97.0 | 78.0 | 183.3 | 58.0 | 157.1 | 35.3 | 181.6 | Average PWL Post-Treatment [2, 17]: 256.1; PWL Change [2, 17]: 159.1 s; Average PWL Post-CFA ([2]; group 10 mg/kg PO, 20% Cremophor EL, and 71% water): 97.0
3 | COCC(=O)Cn1c(=O)c2c(ncn2[C@@H](C)C(=O)Nc2csc(-c3cnc(N4CC5CC5C4)nc3)n2)n(C)c1=O (stereo partly drawn) [Compound 105, (2S)—N-(2-(2-(3-azabicyclo[3.1.0]hexan-3-yl)pyrimidin-5-yl)thiazol-4-yl)-2-(1-(3-methoxy-2-oxopropyl)-3-methyl-2,6-dioxo-2,3-dihydro-1H-purin-7(6H)-yl)propanamide] |  | 215.2 | 112.8 | 226.3 | 123.6 | 102.3 | 102.7 | 97.9 | 162.6 | 86.0 | 154.0 | 70.1 | 137.3 | Average PWL Post-Treatment [2, 4]: 137.3; PWL Change [2, 4]: 34.9 s; Average PWL Post-CFA [2, 7]: 102.4

More lines, main results first:

Row | IC50 [1] [nM] | SMILES | Average PWL Post-Treatment [2, 5] | PWL Change [2, 5] [s] | Average PWL Post-Treatment [2, 6] | PWL Change [2, 6] [s] | Average PWL Post-CFA [2, 8] | Average PWL Post-CFA [2, 9] | Duration (0-2 Minutes) Average [3, 10] [s] | Duration (0-5 Minutes) Average [3, 10] [s] | Duration (0-2 Minutes) Average [3, 11] [s] | Duration (0-5 Minutes) Average [3, 11] [s] | Duration (0-2 Minutes) Average [3, 12] [s] | Duration (0-5 Minutes) Average [3, 12] [s] | further results
4 | 8 | CC(=O)Cn1c(=O)c2c(ncn2[C@@H](C)C(=O)Nc2ccnc(-c3cnc(N4CC5C(C4)C5(F)F)nc3)n2)n(C)c1=O (stereo partly drawn) [Compound 61, (2S)—N-(2′-(6,6-difluoro-3-azabicyclo[3.1.0]hexan-3-yl)-[2,5′-bipyrimidin]-4-yl)-2-(3-methyl-2,6-dioxo-1-(2-oxopropyl)-2,3-dihydro-1H-purin-7(6H)-yl)propanamide] | 235.4 | 139.4 | 278.5 | 182.7 | 96.0 | 95.8 | 89.4 | 149.3 | 90.3 | 152.3 | 52.8 | 120.0 | Average PWL Post-Treatment [2, 4]: 157.1; PWL Change [2, 4]: 60.9 s; Average PWL Post-CFA [2, 7]: 96.2
5 | 5 | C[C@@H](C(=O)Nc1ccnc(-c2cnc(N3CC4CC4C3)nc2)n1)n1cnc2c1c(=O)n(CC#N)c(=O)n2C (stereo partly drawn) [Compound 155, (2S)—N-(2′-(3-azabicyclo[3.1.0]hexan-3-yl)-2,5′-bipyrimidin-4-yl)-2-(1-(cyanomethyl)-3-methyl-2,6-dioxo-2,3-dihydro-1H-purin-7(6H)-yl)propanamide] |  |  |  |  |  |  |  |  |  |  | 59.4 | 182.5 | 
6 | 6 | C[C@@H](C(=O)Nc1cncc(-c2cnc(N3CC4CC4C3)nc2)n1)n1cnc2c1c(=O)n(CC#N)c(=O)n2C (stereo partly drawn) [Compound 144] |  |  |  |  |  |  |  |  |  |  | 64.6 | 181.3 | 
7 | 2 | C[C@@H](C(=O)Nc1cccc(-c2cnc(N3CC4CC4C3)nc2)n1)n1cnc2c1c(=O)n(CC#N)c(=O)n2C (stereo partly drawn) [Compound 149, (2S)—N-(6-(2-(3-azabicyclo[3.1.0]hexan-3-yl)pyrimidin-5-yl)pyridin-2-yl)-2-(1-(cyanomethyl)-3-methyl-2,6-dioxo-2,3-dihydro-1H-purin-7(6H)-yl)propanamide] |  |  |  |  |  |  |  |  |  |  |  |  | Duration (0-2 Minutes) Average [3, 18]: 41.9 s; Duration (0-5 Minutes) Average [3, 18]: 153.0 s
